For one experiment, the system named is panel of 15 kinases. Description: Z'-LYTE SelectScreen kinase panel: number of kinases with <40% inhibition. It is filed as biochemical. The following applies: of 15 kinases tested; 10 μmolar compound; ATP at Km app.
The target of a further experiment is ABL1 (Homo sapiens, UniProt P00519). As to the kind of experiment: Z'-LYTE SelectScreen biochemical kinase assay ABL1. The text has this: (§1) Thermo Fisher Scientific SelectScreen™ Biochemical Kinase Profiling Service Z′-LYTE™ Screening Protocol and Assay Conditions Assay Theory
(§2) The […] biochemical assay employs a fluorescence-based, coupled-enzyme format and is based on the differential sensitivity of phosphorylated and non-phosphorylated peptides to proteolytic cleavage. The peptide substrate is labeled with two fluorophores—one at each end—that make up a FRET pair. In the primary reaction, the kinase transfers the gamma-phosphate of ATP to a single tyrosine, serine or threonine residue in a synthetic FRET-peptide. In the secondary reaction, a site-specific protease recognizes and cleaves non-phosphorylated FRET-peptides. Phosphorylation of FRET-peptides suppresses cleavage by the Development Reagent. Cleavage disrupts FRET between the donor (i.e., coumarin) and acceptor (i.e., fluorescein) fluorophores on the FRET-peptide, whereas uncleaved, phosphorylated FRET-peptides maintain FRET. A ratiometric method, which calculates the ratio (Emission Ratio=Coumarin emission (445 nm)/Fluorescein emission (520 nm)) of donor emission to acceptor emission after excitation of the donor fluorophore at 400 nm, is used to quantitate reaction progress, as shown in the equation below. A significant benefit of this ratiometric method for quantitating reaction progress is the elimination of well-to-well variations in FRET-peptide concentration and signal intensities. As a result, the assay yields very high Z′-factor values (>0.7) at a low percent phosphorylation. Both cleaved and uncleaved FRET-peptides contribute to the fluorescence signals and therefore to the Emission Ratio. The extent of phosphorylation of the FRET-peptide can be calculated from the Emission Ratio. The Emission Ratio will remain low if the FRET-peptide is phosphorylated (i.e., no kinase inhibition) and will be high if the FRET-peptide is non-phosphorylated (i.e., kinase inhibition).
(§3) The Test Compounds are screened in 1% DMSO (final) in the well. For 10 point titrations, 3-fold serial dilutions are conducted from the starting concentration of the customer's choosing.
(§4) All Peptide/Kinase Mixtures are diluted to a 2× working concentration in the appropriate Kinase Buffer (see section Kinase Specific Assay Conditions for a complete description).
(§5) All ATP Solutions are diluted to a 4× working concentration in Kinase Buffer (50 mM HEPES pH 7.5, 0.01% BRIJ-35, 10 mM MgCl2, 1 mM EGTA). ATP Km apparent is previously determined using a Z″-LYTE assay.
(§6) The Development Reagent is diluted in Development Buffer (see section Kinase-Specific Assay Conditions—Direct and Cascade for a complete description).
(§7) Bar-coded Corning, low volume NBS, black 384-well plate (Corning Cat. #4514) • 1. 100 nL—100× Test Compound in 100% DMSO • 2. 2.4 μL—Kinase buffer • 3. 5 μL—2× Peptide/Kinase Mixture • 4. 2.5 μL—4×ATP Solution • 5. 30—second plate shake • 6. 60—minute Kinase Reaction incubation at room temperature • 7. 5 μL—Development Reagent Solution • 8. 30—second plate shake • 9. 60—minute Development Reaction incubation at room temperature • 10. Read on fluorescence plate reader and analyze the data Z′-LYTE Assay Controls
(§8) SelectScreen Kinase Profiling Service uses XLfit from IDBS. The dose response curve is curve fit to model number 205 (sigmoidal dose-response model).
The 2×ABL1/Tyr 02 mixture is prepared in 50 mM HEPES pH 7.5, 0.01% BRIJ-35, 10 mM MgCl2, 1 mM EGTA. The final 10 μL Kinase Reaction consists of 0.29-1.26 ng ABL1 and 2 μM Tyr 02 in 50 mM HEPES pH 7.5, 0.01% BRIJ-35, 10 mM MgCl2, 1 mM EGTA. After the 1 hour Kinase Reaction incubation, 5 μL of a 1:128 dilution of Development Reagent A is added.

Another experiment deals with FGFR1 (Homo sapiens, UniProt P11362). Description: Z'-LYTE SelectScreen biochemical kinase assay FGFR1.
Description: as §1, §2, §3, §4, §5, §6, §7, §8
The 2×FGFR1/Tyr 04 mixture is prepared in 50 mM HEPES pH 7.5, 0.01% BRIJ-35, 10 mM MgCl2, 4 mM MnCl2, 1 mM EGTA, 2 mM DTT. The final 10 μL Kinase Reaction consists of 0.44-2.45 ng FGFR1 and 2 μM Tyr 04 in 50 mM HEPES pH 7.5, 0.01% BRIJ-35, 10 mM MgCl2, 2 mM MnCl2, 1 mM EGTA, 1 mM DTT. After the 1 hour Kinase Reaction incubation, 5 μL of a 1:64 dilution of Development Reagent B is added.

For another experiment, the target named is T1, AURKA (Aurora A) (Homo sapiens, UniProt O14965).
T1 sequence (O14965 1-403): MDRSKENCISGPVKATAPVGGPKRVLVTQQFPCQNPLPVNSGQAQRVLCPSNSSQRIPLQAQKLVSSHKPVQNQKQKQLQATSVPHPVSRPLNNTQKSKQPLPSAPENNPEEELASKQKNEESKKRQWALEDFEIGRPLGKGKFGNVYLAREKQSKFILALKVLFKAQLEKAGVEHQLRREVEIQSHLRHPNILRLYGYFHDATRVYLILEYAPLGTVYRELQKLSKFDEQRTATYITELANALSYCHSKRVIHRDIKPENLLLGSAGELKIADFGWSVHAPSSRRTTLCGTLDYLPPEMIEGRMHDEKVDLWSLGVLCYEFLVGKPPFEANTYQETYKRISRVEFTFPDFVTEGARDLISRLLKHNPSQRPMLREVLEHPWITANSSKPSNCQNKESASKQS
Description: Z'-LYTE SelectScreen biochemical kinase assay AURKA (Aurora A).
Description: as §1, §2, §3, §4, §5, §6, §7, §8
The 2×AURKA (Aurora A)/Ser/Thr 01 mixture is prepared in 50 mM HEPES pH 7.5, 0.01% BRIJ-35, 10 mM MgCl2, 1 mM EGTA. The final 10 μL Kinase Reaction consists of 0.91-8.56 ng AURKA (Aurora A) and 2 μM Ser/Thr 01 in 50 mM HEPES pH 7.5, 0.01% BRIJ-35, 10 mM MgCl2, 1 mM EGTA. After the 1 hour Kinase Reaction incubation, 5 μL of a 1:4096 dilution of Development Reagent A is added.

The next experiment concerns kinases. Description: Z'-LYTE SelectScreen kinase panel: number of kinases with <40% inhibition out of 15 tested. It is filed as biochemical. The following applies: 10 μmolar (10000 nM) compound; [ATP] Km app; 15 kinases tested.
[1] abbreviates: 10 μmolar compound concentration, ATP at Km app, read-out: ABL1 inhibition.
Setting [2] is: read-out: % Inhibition mean ABL1.
The mark [3] stands for this setting: 10 μmolar compound concentration, ATP at Km app, read-out: FGFR1 inhibition.
Where [4] appears, read: read-out: % Inhibition mean FGFR1.
Where [5] appears, read: 10 μmolar compound concentration, ATP at Km app, read-out: AURKA (Aurora A) inhibition.
The mark [6] stands for this setting: read-out: % Inhibition mean AURKA (Aurora A).

Like-named read-outs stand apart in the source and are kept apart here.

Usually inhibition stands for the change of the read-out against control, counted positive when it falls.

FGFR1, sequence (P11362 22-822): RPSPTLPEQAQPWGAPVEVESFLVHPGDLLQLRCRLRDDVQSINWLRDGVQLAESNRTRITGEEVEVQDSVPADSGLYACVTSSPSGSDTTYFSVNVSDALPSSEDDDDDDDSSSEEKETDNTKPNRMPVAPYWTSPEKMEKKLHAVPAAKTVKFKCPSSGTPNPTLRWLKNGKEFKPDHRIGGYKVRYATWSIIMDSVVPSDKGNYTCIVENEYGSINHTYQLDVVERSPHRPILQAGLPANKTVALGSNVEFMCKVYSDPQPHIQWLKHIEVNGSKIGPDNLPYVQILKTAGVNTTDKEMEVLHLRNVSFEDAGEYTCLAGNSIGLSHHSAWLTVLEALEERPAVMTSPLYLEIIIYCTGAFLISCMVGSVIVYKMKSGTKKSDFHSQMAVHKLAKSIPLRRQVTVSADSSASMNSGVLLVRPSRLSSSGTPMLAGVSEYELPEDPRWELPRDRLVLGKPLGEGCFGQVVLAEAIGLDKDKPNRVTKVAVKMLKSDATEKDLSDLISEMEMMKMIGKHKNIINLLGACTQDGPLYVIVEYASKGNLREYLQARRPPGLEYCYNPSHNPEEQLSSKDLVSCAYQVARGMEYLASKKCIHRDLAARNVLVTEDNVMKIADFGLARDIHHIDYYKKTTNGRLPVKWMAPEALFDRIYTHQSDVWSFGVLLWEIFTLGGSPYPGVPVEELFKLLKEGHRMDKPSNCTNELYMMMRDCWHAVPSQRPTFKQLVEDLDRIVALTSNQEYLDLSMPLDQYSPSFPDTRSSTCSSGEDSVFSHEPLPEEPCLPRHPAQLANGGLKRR
ABL1, sequence (P00519 whole entry): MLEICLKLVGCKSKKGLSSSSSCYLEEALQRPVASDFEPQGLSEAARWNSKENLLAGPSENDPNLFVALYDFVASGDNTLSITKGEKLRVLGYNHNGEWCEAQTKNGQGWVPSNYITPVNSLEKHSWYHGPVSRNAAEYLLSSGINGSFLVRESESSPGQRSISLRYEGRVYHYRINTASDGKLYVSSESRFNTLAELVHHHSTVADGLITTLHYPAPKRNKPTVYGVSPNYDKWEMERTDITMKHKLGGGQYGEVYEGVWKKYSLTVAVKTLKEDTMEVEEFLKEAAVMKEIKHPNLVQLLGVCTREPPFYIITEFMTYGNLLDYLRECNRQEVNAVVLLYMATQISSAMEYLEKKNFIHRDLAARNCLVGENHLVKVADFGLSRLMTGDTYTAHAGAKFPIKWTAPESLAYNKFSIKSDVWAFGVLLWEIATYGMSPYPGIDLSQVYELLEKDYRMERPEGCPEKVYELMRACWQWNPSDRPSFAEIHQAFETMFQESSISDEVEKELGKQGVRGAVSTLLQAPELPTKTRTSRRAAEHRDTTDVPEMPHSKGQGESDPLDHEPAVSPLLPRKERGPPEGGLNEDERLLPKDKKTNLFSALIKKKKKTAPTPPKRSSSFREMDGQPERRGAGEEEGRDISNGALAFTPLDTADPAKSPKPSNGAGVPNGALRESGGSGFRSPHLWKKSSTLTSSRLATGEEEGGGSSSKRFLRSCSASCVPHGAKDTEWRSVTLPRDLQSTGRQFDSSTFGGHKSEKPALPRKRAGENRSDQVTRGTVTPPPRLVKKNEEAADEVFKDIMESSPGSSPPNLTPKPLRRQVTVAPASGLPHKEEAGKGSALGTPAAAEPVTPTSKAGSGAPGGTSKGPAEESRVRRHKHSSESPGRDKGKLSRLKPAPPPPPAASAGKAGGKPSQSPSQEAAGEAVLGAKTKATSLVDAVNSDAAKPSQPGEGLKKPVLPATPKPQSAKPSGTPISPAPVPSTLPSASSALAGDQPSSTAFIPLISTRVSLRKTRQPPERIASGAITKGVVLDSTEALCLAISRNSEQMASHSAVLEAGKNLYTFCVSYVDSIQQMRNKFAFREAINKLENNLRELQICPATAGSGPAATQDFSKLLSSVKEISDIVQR

For the compound `CCn1ncc2c1CCC(Nc1nc3c(-c4cccc(Cl)c4)cccn3n1)C2` (stereo not shown) [Example 59, [8-(3-Chloro-phenyl)-[1,2,4]triazolo[1,5-a]pyridine-2-yl]-(1-ethyl-4,5,6,7-tetrahydro-1H-indazol-5-yl)-amine], the “No. of kinases with <40% inhibition” value in the experiment on panel of 15 kinases is reported as 13/15. Further, the inhibition at 10 µM on ABL1 (setting [1]) was less than 40%; at ABL1 (setting [2]), 19%; at FGFR1 (setting [3]), less than 40%; on FGFR1 (setting [4]) it was 22%; on AURKA (Aurora A) (setting [5]) it was less than 40%; on AURKA (Aurora A) (setting [6]), -21%.

With `CCn1ncc2c1CCC(Nc1nc3c(-c4cccnc4)cccn3n1)C2` (stereo not shown) [Example 63, (1-Ethyl-4,5,6,7-tetrahydro-1H-indazol-5-yl)-(8-pyridin-3-yl-[1,2,4]triazolo[1,5-a]pyridine-2-yl)-amine], the “No. of kinases with <40% inhibition” value in the experiment on panel of 15 kinases is listed as 12/15. The inhibition at 10 µM on ABL1 (setting [1]) is less than 40%; at ABL1 (setting [2]), 15%; on FGFR1 (setting [3]), less than 40%; at FGFR1 (setting [4]), 18%; on AURKA (Aurora A) (setting [5]) it was less than 40%; on AURKA (Aurora A) (setting [6]), 29%.

For the compound `CCn1ncc2c1CCC(Nc1nc3c(-c4cncc(OC)c4)cccn3n1)C2` (stereo not shown) [Example 70, (1-Ethyl-4,5,6,7-tetrahydro-1H-indazol-5-yl)-[8-(5-methoxy-pyridin-3-yl)-[1,2,4]triazolo[1,5-a]pyridine-2-yl]-amine], the “No. of kinases with <40% inhibition” value in the experiment with panel of 15 kinases was 11/15. For the same compound, the inhibition at 10 µM was less than 40% at ABL1 (setting [1]); 15% on ABL1 (setting [2]); less than 40% at FGFR1 (setting [3]); 18% at FGFR1 (setting [4]); 40 to 80% at AURKA (Aurora A) (setting [5]); 51% on AURKA (Aurora A) (setting [6]).

`CCn1ncc2c1CCC(Nc1nc3c(-c4ccc(OC)nc4)cccn3n1)C2` (stereo not shown) [Example 71, (1-Ethyl-4,5,6,7-tetrahydro-1H-indazol-5-yl)-[8-(6-methoxy-pyridin-3-yl)-[1,2,4]triazolo[1,5-a]pyridine-2-yl]-amine]: the “No. of kinases with <40% inhibition” value in the experiment on panel of 15 kinases is recorded as 11/15. Moreover, the inhibition at 10 µM was less than 40% at ABL1 (setting [1]); 24% at ABL1 (setting [2]); less than 40% at FGFR1 (setting [3]); 19% on FGFR1 (setting [4]); 40 to 80% at AURKA (Aurora A) (setting [5]); 42% on AURKA (Aurora A) (setting [6]).

As to `CCn1ncc2c1CC[C@@H](Nc1nc3c(-c4ccc(F)c(Cl)c4)cccn3n1)C2` [Example R-61, (R)-[8-(3-Chloro-4-fluoro-phenyl)-[1,2,4]triazolo[1,5-a]pyridine-2-yl]-(1-ethyl-4,5,6,7-tetrahydro-1H-indazol-5-yl)-amine], the “No. of kinases with <40% inhibition” value in the experiment with panel of 15 kinases was 15/15. Moreover, the inhibition at 10 µM on ABL1 (setting [1]) was less than 40%; on ABL1 (setting [2]), 3%; at FGFR1 (setting [3]), less than 40%; on FGFR1 (setting [4]), 15%; at AURKA (Aurora A) (setting [5]), less than 40%; at AURKA (Aurora A) (setting [6]), -8%.

For the compound `CCn1ncc2c1CCC(Nc1nc3c(-c4cnccc4OC)cccn3n1)C2` (stereo not shown) [Example 68, (1-Ethyl-4,5,6,7-tetrahydro-1H-indazol-5-yl)-[8-(4-methoxy-pyridin-3-yl)-[1,2,4]triazolo[1,5-a]pyridine-2-yl]-amine], the “No. of kinases with <40% inhibition” value with panel of 15 kinases is given as 11/15. The inhibition at 10 µM on ABL1 (setting [1]) is less than 40%; at ABL1 (setting [2]), 28%; on FGFR1 (setting [3]), less than 40%; at FGFR1 (setting [4]) it was 23%; on AURKA (Aurora A) (setting [5]) it was less than 40%; at AURKA (Aurora A) (setting [6]), 39%.

As for `Cc1cc(F)ccc1-c1cccn2nc(NC3CCc4c(cnn4C)C3)nc12` (stereo not shown) [Example 10, [8-(4-fluoro-2-methyl-phenyl)-[1,2,4]triazolo[1,5-a]pyridine-2-yl]-(1-methyl-4,5,6,7-tetrahydro-1H-indazol-5-yl)-amine], the inhibition at 10 µM on ABL1 (setting [1]) is less than 40%; on ABL1 (setting [2]), 1%; at FGFR1 (setting [3]), less than 40%; on FGFR1 (setting [4]), 15%; at AURKA (Aurora A) (setting [5]) it was less than 40%; at AURKA (Aurora A) (setting [6]) it was 4%. For the same compound, the “No. of kinases with <40% inhibition” value in the experiment on kinases is 13/15.
